Test [1] concerns CTCF. Kind of test: ChIP-Seq for CTCF with and without auxin. In kind it is cell-based, human. Here is the method: ChIP-Seq for H3K27Ac, H3K4me1, H3K4me3, H3K36me3, H3K27me3, H3K9me3, H4K16Ac, H4K20me3, H3K79me2, and H2.AZ was performed using a native ChIP-Seq protocol. Chromatin from untreated HCT-116 RAD21-mAC cells or cells treated for 6 hours with 500 uM IAA was digested with Mnase (Sigma) in digestion buffer (50 mM Tris-HCl, pH7.6, 1 mM CaCl2), 0.2% Triton X-100, butyrate 5 mM) for 5′ at 37° C. and dialyzed against RIPA buffer for 2 hrs at 4° C. Five microgram of respective antibody was incubated with 40 μl of Dynabeads Protein A (or G) for 40 min at room temperature. Antibody-bound beads were added to 500 μl of sonicated or Mnase-digested chromatin, incubated at 4° C. overnight, and washed twice with RIPA buffer, twice with RIPA buffer containing 0.3 M NaCl, twice with LiCl buffer (0.25 M LiCl, 0.5% Igepal-630, 0.5% sodium deoxycholate), once with TE (pH 8.0) plus 0.2% Triton X-100, and once with TE (pH 8.0). ChIP DNA was purified by phenol-chloroform extraction followed by ethanol precipitation. Libraries were prepped for Illumina sequencing and 50 bp single-end reads were sequenced on a HiSeq2000 or 2500 (Illumina). Applicants also performed ChIP-Seq for RAD21 and CTCF following the same protocol as above, except that cells were fixed with 1% formaldehyde for 10 minutes at 37° C. and fixation was quenched by the addition of glycine to a final concentration of 125 mM for 10 minutes. The fixed cells were sonicated using a Branson sonifier at amplitude 35%, 12 cycles of 20 seconds of sonication and 30 seconds of pause. Antibody was added to the sonicated chromatin as above and the samples were further processed as above. […]
All ChIP-Seq data was aligned to hg19 with BWA (Li and Durbin, 2010) (Li and Durbin, 2010) (Li and Durbin, 2010), deduplicated using PicardTools, and analyzed with MACS 2.0 (Liu, 2014). […]
Applicants calculated average signal over 5 kb bins across the entire genome and correlated signal between ChIP-Seq experiments before and after auxin treatment for each of CTCF, H3K27me3, H3K9me3, H3K4me1, H3K4me3 and H3K27Ac.

For test [2], the system named is HCT-116-CMV-OsTIR1 cells. Kind of test: PRO-Seq control for the auxin hormone itself. The test is classed as cell-based, human. The settings on record: no mAID tag on any protein. Here is the method:
To measure changes in transcription resulting from cohesin loss, Applicants performed precision run-on sequencing (PRO-Seq) (Jonkers and Lis, 2015), a variant of global run-on sequencing (GRO-Seq), using a single biotinylated nucleotide (biotin-11-CTP) as previously described (Engreitz et al., 2016). Applicants made one modifications to the protocol: at the end of each biotin enrichment, Applicants eluted biotinylated RNAs from the streptavidin-coated magnetic beads by heating beads in 25 μl of 20 mM Tris-HCl pH 7.5, 10 mM EDTA, 2% N-lauroylsarcosine at 95° C. for 5 minutes, followed by a magnetic-bead nucleic acid purification with 20 μl of MyONE SILANE beads. During the nuclei preparation step, Applicants processed pairs of RAD21-mAC cells with and without auxin treatment in parallel. In addition, Applicants performed PRO-Seq on HCT-116 CMV-OsTIR1 cells, the parental cell line of RAD21-mAC containing the OsTIR1 gene integrated at the AAVS1 locus and no mAID tags integrated on any protein. By performing PRO-Seq on CMV-OsTIR1 cells with and without auxin treatment, Applicants could control for transcriptional effects of the auxin treatment itself on HCT-116 cells, as well as any consequences of tagging the RAD21 protein. […]

In the case of `O=C(O)Cc1c[nH]c2ccccc12` [auxin, indole-3-acetic acid], in test [1], the “CTCF peaks called after auxin treatment also called before auxin treatment” value was 96%. Also, the “Spearman's r of ChIP-Seq signal before vs after auxin treatment, CTCF” value in test [1] (5 kb bins genome-wide) stood at 0.80. Moreover, the “average enrichment at all CTCF binding sites called by ENCODE, treated cells” value in test [1] (untreated 10.89) amounted to 8.93. In addition, in test [2], the “number of genes detected as significantly different before vs after auxin treatment” value came out at 105 and the “number of genes significantly different with at least a 1.3-fold change” value was determined as 56.

The values are drawn from patent US20200255828A1, “METHODS AND COMPOSITIONS FOR ALTERING FUNCTION AND STRUCTURE OF CHROMATIN LOOPS AND/OR DOMAINS” (THE BROAD INSTITUTE, INC., priority 2017, published 2020).
